From US9072293B2, “Cyclopropenes and method for applying cyclopropenes to agricultural products or crops” (Erum Biotechnologies Inc., priority 2010, dated 2015) come the findings set out here.

For data set [1], the system named is tomato. In words: Experimental Example 2: Efficacy test on tomato using oil based formulation (reddening grade). More on the design: key: an area in which the surface of tomato was colored in pink was 10% or less; an area in which the surface of tomato was completely colored in red was 10 to 40%; 2: an area in which the surface of tomato was completely colored in red was 40 to 70%; 3: an area in which the surface of tomato was completely colored in red was 70% or more and the bottom area remained green; 4: an area in which the surface of tomato was most colored in red and only a part of (0 to 10%) the bottom area remained green; 5: the surface of tomato did not entirely color in green. It counts as in vivo. Particulars: 1.0 mM oil-based formulation, individual tomatoes n=4. The source says: (§1) At this time, the tops of tomatoes most early turned red, while the bottoms thereof most lately turned red. For this reason, in order to accurately evaluate the difference in reddening, the coloring evaluated was based on the area of red color, rather than the color of tomatoes. […] Accordingly, the grade level is proportional to the rate at which the tomatoes ripened.
As illustrated in Example 1, in situ, in accordance with the methods of Preparation Examples 15, 16, 17, 18 and 22, five agents (1.0 mmol) such as 1-(2-phenylethyl)cyclopropene, 1-(3-phenylpropyl)cyclopropene, 1-(4-phenylbutyl)cyclopropene, 1-(5-phenylpentyl)cyclopropene and 1-hexylcyclopropene were prepared, 5.0 ml of xylene and 5.0 ml of water were added to the reaction solution, vigorously stirred for 5 minutes and stood. When the mixture was separated into an organic layer (upper layer) and an aqueous layer (lower layer), only the organic layer was collected and the aqueous layer was discarded. […] of hexane was added to the organic layer and homogeneously mixed to prepare a 1.0 mM oil-based formulation.
The tomatoes were screened in the same manner as in Experimental Example 1 and divided into 7 groups (n=4) including a non-treated group, a control group (solvent-treated group) and 5 agent groups. Tomatoes were treated with the previously prepared agent using a household sprayer such that the surface thereof was saturated. The tomatoes were stood at room temperature (25-30° C.) for 3 days and a reddening level thereof was evaluated based on grades of 0 to 5.

Data set [2] in a line: Relative chemical stability of cyclopropenes measured by 1H-NMR. It counts as physicochemical. Particulars: for Stability (relative chemical stability, based on cyclopropenes having a chain length of 1): 1H-NMR, CDCl3, stored at −20° C. or room temperature, relative to chain length 1. The gist of the method:
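Compounds in CDCl3 NMR tubes stored at −20° C. or room temperature and followed by 1H-NMR. Integrals of characteristic 1-alkylcyclopropene peaks (4–6.5 ppm, 1H; 0.8–0.9 ppm, 2H) compared against 1,1,3,3-tetramethylurea internal standard (2.80 ppm); stability expressed relative to chain-length-1 analogue.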

The subject of data set [3] is tomato. The data set is described as follows: Experimental Example 1: Efficacy test on tomato using emulsion (reddening grade). It counts as in vivo. Particulars: individual tomatoes n=4. The method, then: In situ, a 1.0 mM 1-octylcyclopropene formulation was prepared using (trans)-1-octyl-1-(methanesulfonyloxy)-2-(trimethylsilyl)cyclopropane of Preparation Example 10 in the same manner as in Example 7. This solution was diluted to 1 to 100 times prior to use, as necessary. Experimental Example 1: Efficacy test on tomato using emulsion 1.0 mM formulations of five agents such as 1-(2-phenylethyl)cyclopropene, 1-(3-phenylpropyl)cyclopropene, 1-(4-phenylbutyl)cyclopropene, 1-(5-phenylpentyl)cyclopropene and 1-hexylcyclopropene were prepared in the same manner as in Example 1, and 1.0 mM and 100 μM solutions were prepared therefrom. Then, the effects of the solutions were compared with non-treated groups and control groups in which a surfactant or a stabilizing agent (sodium dodecylbenzenesulfonate or tristyrenylphenykethoxy)12ethanol) is dissolved.
Tomatoes whose top end began to turn pink were screened, harvested and divided into 12 groups (n=4) in total, i.e., non-treated groups, control groups (surfactant) and agent groups with different concentrations such as 100 μM and 1.0 mM. Tomatoes were treated with the prepared agent formulation using a household sprayer such that the surface thereof was saturated. The tomatoes were stood at room temperature (25-30° C.) for 3 days and a reddening level thereof was evaluated based on grades of 0 to 5.
as §1

The mark [4] stands for this setting: Day 0, room temperature (25-30° C.).
Setting [5] is: Day 1, room temperature (25-30° C.).
Setting [6] is: Day 2, room temperature (25-30° C.).
[7] abbreviates: Day 3, room temperature (25-30° C.).
[8] abbreviates: 100 μM, Day 0, room temperature (25-30° C.).
Where [9] appears, read: 100 μM, Day 1, room temperature (25-30° C.).
Where [10] appears, read: 100 μM, Day 2, room temperature (25-30° C.).
Where [11] appears, read: 100 μM, Day 3, room temperature (25-30° C.).
Where [12] appears, read: 1.0 mM, Day 0, room temperature (25-30° C.).
Where [13] appears, read: 1.0 mM, Day 1, room temperature (25-30° C.).
Where [14] appears, read: 1.0 mM, Day 2, room temperature (25-30° C.).
Where [15] appears, read: 1.0 mM, Day 3, room temperature (25-30° C.).

Values joined by “and” are separate entries in the source; they are usually repeats but may differ in a detail not shown here. Identical values can stand only once.

Consider `C1=C(CCc2ccccc2)C1` [(2-Phenylethyl), 1-(2-phenylethyl)cyclopropene], for which the “Tomato results: reddening level (grade 0 to 5)” value in data set [1] (setting [4]) is 0 (an area in which the surface of tomato was colored in pink was 10% or less) (2×) and 1 (an area in which the surface of tomato was completely colored in red was 10 to 40%) and 2 (an area in which the surface of tomato was completely colored in red was 40 to 70%); in data set [1] (setting [5]), 1 (an area in which the surface of tomato was completely colored in red was 10 to 40%) (2×) and 2 (an area in which the surface of tomato was completely colored in red was 40 to 70%) and 3 (an area in which the surface of tomato was completely colored in red was 70% or more and the bottom area remained green); in data set [1] (setting [6]), 2 (an area in which the surface of tomato was completely colored in red was 40 to 70%) (2×) and 4 (2×); in data set [1] (setting [7]), 4 (2×) and 5 (2×). In addition, the “chemical stability (in words)” value in data set [2] is “considerably stable”. Moreover, the “Stability (relative chemical stability, based on cyclopropenes having a chain length of 1)” value in data set [2] was more than 10. In addition, the “reddening level (grade 0 to 5)” value is 0 (an area in which the surface of tomato was colored in pink was 10% or less) (2×) and 1 (an area in which the surface of tomato was completely colored in red was 10 to 40%) and 2 (an area in which the surface of tomato was completely colored in red was 40 to 70%) in data set [3] (setting [8]); 1 (an area in which the surface of tomato was completely colored in red was 10 to 40%) (2×) and 3 (an area in which the surface of tomato was completely colored in red was 70% or more and the bottom area remained green) (2×) in data set [3] (setting [9]); 2 (an area in which the surface of tomato was completely colored in red was 40 to 70%) and 3 (an area in which the surface of tomato was completely colored in red was 70% or more and the bottom area remained green) and 4 (2×) in data set [3] (setting [10]); 3 (an area in which the surface of tomato was completely colored in red was 70% or more and the bottom area remained green) and 4 and 5 (2×) in data set [3] (setting [11]); 0 (an area in which the surface of tomato was colored in pink was 10% or less) (2×) and 1 (an area in which the surface of tomato was completely colored in red was 10 to 40%) and 2 (an area in which the surface of tomato was completely colored in red was 40 to 70%) in data set [3] (setting [12]); 1 (an area in which the surface of tomato was completely colored in red was 10 to 40%) (2×) and 2 (an area in which the surface of tomato was completely colored in red was 40 to 70%) and 3 (an area in which the surface of tomato was completely colored in red was 70% or more and the bottom area remained green) in data set [3] (setting [13]). Also, the “reddening level (grade 0 to 5)” value in data set [3] (setting [14]) was 2 (an area in which the surface of tomato was completely colored in red was 40 to 70%) (2×) and 3 (an area in which the surface of tomato was completely colored in red was 70% or more and the bottom area remained green) and 4; in data set [3] (setting [15]) it was 3 (an area in which the surface of tomato was completely colored in red was 70% or more and the bottom area remained green) (2×) and 4 and 5.

As to `C1=C(CCCc2ccccc2)C1` [(3-Phenylpropyl), 1-(3-phenylpropyl)cyclopropene], the “Tomato results: reddening level (grade 0 to 5)” value in data set [1] (setting [4]) is 0 (an area in which the surface of tomato was colored in pink was 10% or less) (2×) and 1 (an area in which the surface of tomato was completely colored in red was 10 to 40%) and 2 (an area in which the surface of tomato was completely colored in red was 40 to 70%); in data set [1] (setting [5]), 0 (an area in which the surface of tomato was colored in pink was 10% or less) (2×) and 1 (an area in which the surface of tomato was completely colored in red was 10 to 40%) and 2 (an area in which the surface of tomato was completely colored in red was 40 to 70%); in data set [1] (setting [6]), 0 (an area in which the surface of tomato was colored in pink was 10% or less) (2×) and 1 (an area in which the surface of tomato was completely colored in red was 10 to 40%) and 3 (an area in which the surface of tomato was completely colored in red was 70% or more and the bottom area remained green); in data set [1] (setting [7]), 1 (an area in which the surface of tomato was completely colored in red was 10 to 40%) (2×) and 2 (an area in which the surface of tomato was completely colored in red was 40 to 70%) and 4. Also, in data set [2], the “chemical stability (in words)” value is recorded as “much more stable”. The “Stability (relative chemical stability, based on cyclopropenes having a chain length of 1)” value in data set [2] was >>10. The “reddening level (grade 0 to 5)” value is 0 (an area in which the surface of tomato was colored in pink was 10% or less) (2×) and 1 (an area in which the surface of tomato was completely colored in red was 10 to 40%) and 2 (an area in which the surface of tomato was completely colored in red was 40 to 70%) in data set [3] (setting [8]); 1 (an area in which the surface of tomato was completely colored in red was 10 to 40%) (3×) and 2 (an area in which the surface of tomato was completely colored in red was 40 to 70%) in data set [3] (setting [9]); 1 (an area in which the surface of tomato was completely colored in red was 10 to 40%) (2×) and 2 (an area in which the surface of tomato was completely colored in red was 40 to 70%) and 3 (an area in which the surface of tomato was completely colored in red was 70% or more and the bottom area remained green) in data set [3] (setting [10]); 2 (an area in which the surface of tomato was completely colored in red was 40 to 70%) (2×) and 3 (an area in which the surface of tomato was completely colored in red was 70% or more and the bottom area remained green) and 4 in data set [3] (setting [11]); 0 (an area in which the surface of tomato was colored in pink was 10% or less) (2×) and 1 (an area in which the surface of tomato was completely colored in red was 10 to 40%) and 2 (an area in which the surface of tomato was completely colored in red was 40 to 70%) in data set [3] (setting [12]); 0 (an area in which the surface of tomato was colored in pink was 10% or less) (2×) and 1 (an area in which the surface of tomato was completely colored in red was 10 to 40%) and 2 (an area in which the surface of tomato was completely colored in red was 40 to 70%) in data set [3] (setting [13]). For the same molecule, the “reddening level (grade 0 to 5)” value in data set [3] (setting [14]) is 1 (an area in which the surface of tomato was completely colored in red was 10 to 40%) (2×) and 0 (an area in which the surface of tomato was colored in pink was 10% or less) and 3 (an area in which the surface of tomato was completely colored in red was 70% or more and the bottom area remained green); in data set [3] (setting [15]) it was 1 (an area in which the surface of tomato was completely colored in red was 10 to 40%) (2×) and 2 (an area in which the surface of tomato was completely colored in red was 40 to 70%) and 3 (an area in which the surface of tomato was completely colored in red was 70% or more and the bottom area remained green).
